# Counter-ions that a name gives are not always drawn.
# Tested on: PAN02 pancreatic tumors
# Assay: PAN02 pancreatic tumor model, ER-886046 with gemcitabine and radiation
# Format: in vivo, mice
# Details: gemcitabine single 40 mg/kg + RT single 6 Gy on day 27; first study (FIG. 10)
# Description: FIG. 10. […] Antitumor activity of gemcitabine plus local radiation (RT) administered to PAN02 pancreatic tumors in C57BL/6 mice with or without ER-886046. Gemcitabine and RT dosing: a single 40 mg/kg dose of gemcitabine and a single 6 Gy dose of RT, was administered on day 27 post tumor cell injection. ER-8806046 was administered daily in an amount of 150 mg/kg from day 27 post tumor cell injection until the end of the study.
# FIG. 11A to FIG. 11B. Additional experiments with combination therapy of ER-886046 and anti-metabolite chemotherapy with radiation compared to anti-metabolite chemotherapy with radiation alone. Panel shown in FIG. 11A) Gemcitabine and RT dosing: a single 40 mg/kg dose of gemcitabine and a single 6 Gy dose of RT, was administered on day 19 post tumor cell injection. ER-8806046 was administered daily in an amount of 150 mg/kg from day 19 post tumor cell injection until the end of the study. Panel shown in FIG. 11B) Gemcitabine and RT dosing: a single 40 mg/kg dose of gemcitabine and a single 6 Gy dose of RT, was administered on day 12 post tumor cell injection. ER-8806046 was administered daily in an amount of 150 mg/kg from day 12 post tumor cell injection until the end of the study. Average tumor sizes of mouse pancreatic PAN02 tumor-bearing mice that received vehicles, ER-886046, gemcitabine (gem) plus radiation (RT), ER-886046 plus RT, or ER-886046 plus gemcitabine and RT at indicated dosages and schedules. A and B represent each independent study. N=8-10 per group. NS, not significant; *, p<0.05; **, p<0.01; ***, p<0.001; and ****, p<0.0001, two-way ANOVA test.
# Animal studies; In vitro cultured cancer cells were harvested and suspended in 100 μl of cold HBSS buffer at cell concentrations of 1.0×10^6 cells/ml (CT-26 cells) or of 1.0×10^7 cells/ml (PAN02 cells) and subcutaneously (sc) injected into the mice using a 26 g syringe on day 0. At the dates as indicated in the figures, the mice were randomized based on the tumor size followed by treatments with local radiation alone, gemcitabine alone (intravenous administration), ER-886046 alone (oral administration), or combinations of these treatments. […] The tumor sizes were measured twice a week by a digital caliber (Mitutoyo Corp), and the volume was calculated using the formula (1×w^2)/2=mm^3, where 1 and w refer to the larger and smaller perpendicular dimensions collected at each measurement. Graphs of group tumor sizes (mean±SEM) versus time were plotted using software GraphPad Prism 6 (Lake Forest, Calif.). Two way ANOVA was used for statistical calculation among the groups. N=8-10 in each treatment group.
smiles,measurement,value
"Nc1ccn([C@@H]2O[C@H](CO)[C@@H](O)C2(F)F)c(=O)n1 [gemcitabine, Gemcitabine hydrochloride, reference compound]",tumor growth delay activity,weak but statistically significant tumor growth delay activity

# — patent US11707448B2, “Combination therapies for the treatment of cancer” (Eisai R&D Management Co., Ltd., priority 2014, dated 2023)
